The values that follow come from US12281098B2, “Five-membered-fused six-membered compound, preparation method, pharmaceutical composition and use” (HANGZHOU POLYMED BIOPHARMACEUTICALS, INC., priority 2021, dated 2025).

The first assay has as its target T1, IRAK4 kinase (Homo sapiens, UniProt Q9NWZ3).
T1 construct: purchased Carna 09-145
T1 sequence (Q9NWZ3 1-460): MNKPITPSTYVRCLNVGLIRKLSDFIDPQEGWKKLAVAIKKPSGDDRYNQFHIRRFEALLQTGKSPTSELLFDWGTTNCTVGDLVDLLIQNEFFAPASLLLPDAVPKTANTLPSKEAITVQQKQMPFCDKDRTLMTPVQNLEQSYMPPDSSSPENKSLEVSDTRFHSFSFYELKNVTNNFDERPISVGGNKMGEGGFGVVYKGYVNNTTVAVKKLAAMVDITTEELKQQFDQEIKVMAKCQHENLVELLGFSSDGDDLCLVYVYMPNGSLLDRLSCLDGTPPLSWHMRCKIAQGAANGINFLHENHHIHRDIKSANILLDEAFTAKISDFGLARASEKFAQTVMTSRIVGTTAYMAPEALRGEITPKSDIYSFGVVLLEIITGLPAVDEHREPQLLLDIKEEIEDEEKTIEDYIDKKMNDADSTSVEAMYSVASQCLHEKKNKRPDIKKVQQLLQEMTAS
Nature of the assay: Compound inhibition of IRAK4 kinase activity (fluorescence microfluidic mobility shift assay). In kind it is biochemical. To be noted: Table 1; 10 μM ATP, 6 nM IRAK4 kinase. The method, then:
Based on the experimental method of fluorescence microfluidic mobility shift assay, the IC50 value of the compound for competitive binding of ATP to IRAK4 kinase was determined. The initial detection concentration of the compound was 10 μM, which was 4-fold serially diluted to 0.38 nM and assayed in duplicate. In this case, commercially available staurosporine was the standard control for the assay.
1) IRAK4 kinase was dissolved in kinase buffer (50 mM HEPES pH 7.5, 10 mM MgCl2, 2 mM DDT, and 0.01% Brij-35) at a final concentration of 6 nM.
2) The substrate peptide FAM-P8 and ATP were dissolved in the above kinase buffer, and the final concentrations of the substrate peptide FAM-P8 and ATP for IRAK4 were 3 μM and 10 μM, respectively.
3) Compound dilution: The compound was first diluted to 50 μM, and then 4-fold serially diluted with DMSO. In this case, the solution without compound and kinase served as the blank control, corresponding to the “minimum value” shown below; the solution without compound but containing kinase, adenosine 5′-triphosphate disodium salt hydrate, DMSO, and the buffer served as the positive control, corresponding to the “maximum value” shown below.
4) Kinase reaction and termination: 10 μL of the kinase buffer was added to a 384-well plate containing 5 μL of the compound to be tested, and the mixture was incubated at room temperature for 10 minutes; another 10 μL of buffer containing the substrate peptide and adenosine 5′-triphosphate disodium salt hydrate was added to the 384-well plate, and after incubation at 28° C. for 1 hour, 25 μL of termination solution (100 mM HEPES pH 7.5, 50 mM EDTA, 0.2% Coating Reagent #3, and 0.015% Brij-35) was added to each well to terminate the reaction.
5) Data reading: CaliperEZ Reader II instrument was used to read the conversion rate data. Setting conditions: downstream voltage as −500 V, upstream voltage as −2250 V, base pressure as −0.5 PSI, and screening pressure as −1.2 PSI.
6) Data calculation: the conversion rate data was copied from CaliperEZ Reader II, and the conversion rate was converted into inhibition rate data. The calculation formula is as follows: Inhibition percentage (%)=(maximum value−conversion rate)/(maximum value−minimum value)*100%
IC50 values were fitted with XLFit excel add-in version 5.4.0.8.
Consider `O=C(CCCN1Cc2cc(NC(=O)c3cccc(C(F)(F)F)n3)c(Br)cc2C1=O)NCCOCCOCCNc1cccc2c1C(=O)N(C1CCC(=O)NC1=O)C2=O` (stereo not drawn) [III-1], for which the IC50 (in general, the point on the concentration scale where inhibition reaches its midpoint) is not below 10 µM.
With `O=C1CCC(N2C(=O)c3cccc(NCCOCCOCCOCCN4Cc5cc(NC(=O)c6cccc(C(F)(F)F)n6)c(Br)cc5C4=O)c3C2=O)C(=O)N1` (stereo not drawn) [III-4], the IC50 was 1 to 10 µM.
On the same count and under the same terms, next, `CC(C)(O)c1cc2nn(CCN3CCN(CC(=O)N4CC5(CCN(c6cccc7c6C(=O)N(C6CCC(=O)NC6=O)C7=O)CC5)C4)C3=O)cc2cc1NC(=O)c1cccc(C(F)(F)F)n1` (stereo not drawn) [III-12]: 0.1 to 1 µM; `CC(C)(O)c1cc2nn(CCN3CCN(CC(=O)NC4CCN(c5cccc6c5C(=O)N(C5CCC(=O)NC5=O)C6=O)CC4)C3=O)cc2cc1NC(=O)c1cccc(C(F)(F)F)n1` (stereo not drawn) [III-13]: 0.1 to 1 µM; `CC(C)(O)c1cc2nn(CCN3CCN(CC(=O)N4CCN(c5cccc6c5C(=O)N(C5CCC(=O)NC5=O)C6=O)CC4)C3=O)cc2cc1NC(=O)c1cccc(C(F)(F)F)n1` (stereo not drawn) [III-14]: 0.1 to 1 µM.
Regarding `Cc1ncsc1-c1ccc([C@H](C)NC(=O)C2C[C@@H](O)CN2C(=O)[C@@H](NC(=O)COCCNC(=O)CN2CCN(CCn3cc4cc(NC(=O)c5cccc(C(F)(F)F)n5)c(C(C)(C)O)cc4n3)C2=O)C(C)(C)C)cc1` (stereo partly drawn) [III-15], the IC50 was 0.1 to 1 µM.

Staying with this assay, now noted: Table 2; 10 μM ATP, 6 nM IRAK4 kinase.
In the case of `O=C(CCCN1Cc2cc(NC(=O)c3cccc(C(F)(F)F)n3)c(Br)cc2C1=O)NCCOCCOCCNc1cccc2c1C(=O)N(C1CCC(=O)NC1=O)C2=O` (stereo not drawn) [III-1], the half-maximal inhibitory concentration (IC50) is not below 10 µM.
The same measure, in the same setting: next, `O=C1CCC(N2C(=O)c3cccc(NCCOCCOCCOCCN4Cc5cc(NC(=O)c6cccc(C(F)(F)F)n6)c(Br)cc5C4=O)c3C2=O)C(=O)N1` (stereo not drawn) [III-4]: 1 to 10 µM; `CC(C)(O)c1cc2nn(CCN3CCN(CC(=O)N4CC5(CCN(c6cccc7c6C(=O)N(C6CCC(=O)NC6=O)C7=O)CC5)C4)C3=O)cc2cc1NC(=O)c1cccc(C(F)(F)F)n1` (stereo not drawn) [III-12]: 0.1 to 1 µM; `CC(C)(O)c1cc2nn(CCN3CCN(CC(=O)NC4CCN(c5cccc6c5C(=O)N(C5CCC(=O)NC5=O)C6=O)CC4)C3=O)cc2cc1NC(=O)c1cccc(C(F)(F)F)n1` (stereo not drawn) [III-13]: 0.1 to 1 µM.
With `CC(C)(O)c1cc2nn(CCN3CCN(CC(=O)N4CCN(c5cccc6c5C(=O)N(C5CCC(=O)NC5=O)C6=O)CC4)C3=O)cc2cc1NC(=O)c1cccc(C(F)(F)F)n1` (stereo not drawn) [III-14], the IC50 fell in the range of 0.1 to 1 µM.
With `Cc1ncsc1-c1ccc([C@H](C)NC(=O)C2C[C@@H](O)CN2C(=O)[C@@H](NC(=O)COCCNC(=O)CN2CCN(CCn3cc4cc(NC(=O)c5cccc(C(F)(F)F)n5)c(C(C)(C)O)cc4n3)C2=O)C(C)(C)C)cc1` (stereo partly drawn) [III-15], the half-inhibitory concentration (IC50) lay within 0.1 to 1 µM.
Same read-out and setting: to `COc1cc2c(cc1NC(=O)c1cccc(C(F)(F)F)n1)CN(CCC(C)(C)C(=O)N1CCC3(CC1)CCN(c1ncc(C(=O)N[C@H](C(=O)N4C[C@H](O)C[C@H]4C(=O)N[C@@H](C)c4ccc(-c5scnc5C)cc4)C(C)(C)C)cn1)CC3)C2=O` [III-32] belongs 0.1 to 1 µM; to `COc1cc2c(cc1NC(=O)c1cccc(C(F)(F)F)n1)CN(CCC(C)(C)C(=O)N1CCC3(CC1)CCN(c1ncc(Nc4cccc5c4C(=O)N(C4CCC(=O)NC4=O)C5=O)cn1)CC3)C2=O` (stereo not drawn) [III-33], 0.1 to 1 µM.
Still for that read-out and setting: next, `COc1cc2nn(CCN3CCN(CC(=O)N4CCC5(CC4)CCN(c4cccc6c4C(=O)N(C4CCC(=O)NC4=O)C6=O)CC5)CC3)cc2cc1NC(=O)c1cccc(C(F)(F)F)n1` (stereo not drawn) [III-38]: less than 0.1 µM.
Turning to `COc1cc2nn(CCN3CCN(C4CCC5(CC4)CCN(c4cccc6c4C(=O)N(C4CCC(=O)NC4=O)C6=O)CC5)CC3)cc2cc1NC(=O)c1cccc(C(F)(F)F)n1` (stereo not drawn) [III-40], the half-inhibitory concentration (IC50) is less than 0.1 µM.
For the molecule `COc1cc2c(cc1NC(=O)c1cccc(C(F)(F)F)n1)CN(CCN1CCN(CC(=O)N3CCC4(CCC(C(=O)NC(C(=O)N5CC(O)CC5C(=O)NC(C)c5ccc(-c6scnc6C)cc5)C(C)(C)C)CC4)CC3)CC1)C2=O` (stereo not drawn) [III-43], the IC50 fell in the range of 0.1 to 1 µM.
On the same count and under the same terms, to `COc1cc2c(cc1NC(=O)c1cccc(C(F)(F)F)n1)CN(CCN1CCN(CC(=O)N3CCC4(CCC(NC(C(=O)N5CC(O)CC5C(=O)NC(C)c5ccc(-c6scnc6C)cc5)C(C)(C)C)CC4)CC3)CC1)C2=O` (stereo not drawn) [III-44] belongs 0.1 to 1 µM; to `COc1cc2nn(CCN3CCN(CC(=O)N4CCC5(CC4)CCN(c4cccc6c4C(=O)N(C4CCC(=O)NC4=O)C6=O)CC5)[C@H](C)C3)cc2cc1NC(=O)c1cccc(C(F)(F)F)n1` (stereo partly drawn) [III-45], less than 0.1 µM; to `COc1cc2nn(CCN3CCN(CC(=O)N4CCC5(CC4)CCN(c4cccc6c4C(=O)N(C4CCC(=O)NC4=O)C6=O)CC5)[C@@H](C)C3)cc2cc1NC(=O)c1cccc(C(F)(F)F)n1` (stereo partly drawn) [III-46], less than 0.1 µM.
Still for that read-out and setting: next, `COc1cc2nn(CCN3CCN(CC(=O)N4CCC5(CCC(C(=O)N[C@H](C(=O)N6C[C@H](O)C[C@H]6C(=O)N[C@@H](C)c6ccc(-c7scnc7C)cc6)C(C)(C)C)CC5)CC4)[C@H](C)C3)cc2cc1NC(=O)c1cccc(C(F)(F)F)n1` [III-48]: less than 0.1 µM; `CC(C)(O)c1cc2nn(CCN3CCN(CC(=O)N4CCC5(CC4)CCN(c4cccc6c4C(=O)N(C4CCC(=O)NC4=O)C6=O)CC5)CC3)cc2cc1NC(=O)c1cccc(C(F)(F)F)n1` (stereo not drawn) [III-50]: less than 0.1 µM.
The same measure, in the same setting: next, `CC(C)Oc1cc2nn(CCN3CCN(CC(=O)N4CCC5(CC4)CCN(c4cccc6c4C(=O)N(C4CCC(=O)NC4=O)C6=O)CC5)CC3)cc2cc1NC(=O)c1cccc(C(F)(F)F)n1` (stereo not drawn) [III-51]: less than 0.1 µM.
Take `COc1cc2nn(CCN3C4CCC3CN(CC(=O)N3CCC5(CC3)CCN(c3cccc6c3C(=O)N(C3CCC(=O)NC3=O)C6=O)CC5)C4)cc2cc1NC(=O)c1cccc(C(F)(F)F)n1` (stereo not drawn) [III-53]: the IC50 is less than 0.1 µM.
On the same count and under the same terms, to `COc1cc2nn(CCN3CCN(CC(=O)N4CCC5(CC4)CCN(c4cc6c(cc4F)C(=O)N(C4CCC(=O)NC4=O)C6=O)CC5)CC3)cc2cc1NC(=O)c1cccc(C(F)(F)F)n1` (stereo not drawn) [III-55] belongs less than 0.1 µM; to `Cc1ncsc1-c1ccc([C@H](C)NC(=O)[C@@H]2C[C@@H](O)CN2C(=O)[C@@H](NC(=O)C2CCC3(CC2)CCN(C(=O)CN2CCN(CCn4cc5cc(NC(=O)c6cccc(C(F)(F)F)n6)c(OC(C)C)cc5n4)CC2)CC3)C(C)(C)C)cc1` [III-57], less than 0.1 µM; to `COc1cc2c(cc1NC(=O)c1cccc(C(F)(F)F)n1)CN(CCN1CCN(CC(=O)N3CCC4(CC3)CCN(c3cccc5c3C(=O)N(C3CCC(=O)NC3=O)C5=O)CC4)CC1)C2=O` (stereo not drawn) [III-58], 0.1 to 1 µM.
On the same count and under the same terms, next, `COc1cc2c(cc1NC(=O)c1cccc(C(F)(F)F)n1)CN(CCC(C)(C)C(=O)N1CCC3(CC1)CN(c1cccc4c1C(=O)N(C1CCC(=O)NC1=O)C4=O)C3)C2=O` (stereo not drawn) [III-59]: 0.1 to 1 µM; `CC(C)Oc1cc2nn(CCN3CCN(CC(=O)N4CC5(C4)CN(c4cccc6c4C(=O)N(C4CCC(=O)NC4=O)C6=O)C5)CC3)cc2cc1NC(=O)c1cccc(C(F)(F)F)n1` (stereo not drawn) [III-60]: less than 0.1 µM; `COc1cc2nn(CCN3CCN(CC(=O)N4CC5(C4)CN(c4cccc6c4C(=O)N(C4CCC(=O)NC4=O)C6=O)C5)CC3)cc2cc1NC(=O)c1cccc(C(F)(F)F)n1` (stereo not drawn) [III-61]: less than 0.1 µM.
For the molecule `COc1cc2nn(CCN3CCN(CC(=O)N4CCC5(CC4)CN(c4cccc6c4C(=O)N(C4CCC(=O)NC4=O)C6=O)C5)CC3)cc2cc1NC(=O)c1cccc(C(F)(F)F)n1` (stereo not drawn) [III-62], the IC50 is less than 0.1 µM.
On the same count and under the same terms, to `COc1cc2c(cc1NC(=O)c1cccc(C(F)(F)F)n1)CN(CCC(C)(C)C(=O)N1CC3(C1)CN(c1cccc4c1C(=O)N(C1CCC(=O)NC1=O)C4=O)C3)C2=O` (stereo not drawn) [III-64] belongs 0.1 to 1 µM.
On to `COc1cc2nn(CCC3CCN(CC(=O)N4CCC5(CC4)CCN(c4cccc6c4C(=O)N(C4CCC(=O)NC4=O)C6=O)CC5)CC3)cc2cc1NC(=O)c1cccc(C(F)(F)F)n1` (stereo not drawn) [III-66], for which the IC50 was less than 0.1 µM.
On the same count and under the same terms, next, `COc1cc2nn(CC#CC3CCN(CC(=O)N4CCC5(CC4)CCN(c4cccc6c4C(=O)N(C4CCC(=O)NC4=O)C6=O)CC5)CC3)cc2cc1NC(=O)c1cccc(C(F)(F)F)n1` (stereo not drawn) [III-67]: less than 0.1 µM; `COc1cc2nn(CCC3CCN(CC(=O)N4CCC5(CCC(C(=O)N[C@H](C(=O)N6C[C@H](O)C[C@H]6C(=O)N[C@@H](C)c6ccc(-c7scnc7C)cc6)C(C)(C)C)CC5)CC4)CC3)cc2cc1NC(=O)c1cccc(C(F)(F)F)n1` [III-68]: less than 0.1 µM.
Same read-out and setting: to `COc1cc2nn(CCC3CCN(CC(=O)N4CC5(CC(CC(=O)N[C@H](C(=O)N6C[C@H](O)C[C@H]6C(=O)N[C@@H](C)c6ccc(-c7scnc7C)cc6)C(C)(C)C)C5)C4)CC3)cc2cc1NC(=O)c1cccc(C(F)(F)F)n1` [III-70] belongs less than 0.1 µM.
